# Reference: the supplement of paper PMC10307832
# Assays:
# Assay in all cases: relative viability (nuclei count vs DMSO), 5 days (fraction); higher = more cells survive
# NCI-H1355 = system: NCI-H1355
# How it was run: (§1)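 A single step with final 0.05% Triton X-100, 1% formaldehyde and 1 ug/ml Hoechst fixed the cells and stained nuclei 5 days after treatment. Lung cancer cell lines in 1536-well plates had been treated by pin tool the day after seeding with one drug alone or a fixed anchor-drug dose plus five library-drug doses (not always all listed) in √10 steps, and nuclei were counted on 4× images. Relative viability is the ratio of nuclei in treated wells to nuclei in vehicle wells, taken as the median of duplicate plates.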
# NCI-H1975 = system: NCI-H1975
# How it was run: as §1
# SK-MES-1 = system: SK-MES-1
# How it was run: as §1
# NCI-H358 = system: NCI-H358
# How it was run: as §1
# HCC-78 = system: HCC-78
# How it was run: as §1
# LCLC-97TM1 = system: LCLC-97TM1
# How it was run: as §1
# NCI-H1651 = system: NCI-H1651
# How it was run: as §1
# PC-3 [JPC-3] = system: PC-3 [JPC-3]
# How it was run: as §1
# NCI-H2087 = system: NCI-H2087
# How it was run: as §1
# LK-2 = system: LK-2
# How it was run: as §1
# NCI-H596 = system: NCI-H596
# How it was run: as §1
# LC-2-ad = system: LC-2-ad
# How it was run: as §1
# NCI-H1666 = system: NCI-H1666
# How it was run: as §1
# NCI-H838 = system: NCI-H838
# How it was run: as §1
# NCI-H650 = system: NCI-H650
# How it was run: as §1
# NCI-H1944 = system: NCI-H1944
# How it was run: as §1
# NCI-H661 = system: NCI-H661
# How it was run: as §1
# ChaGo-K-1 = system: ChaGo-K-1
# How it was run: as §1
# BEN = system: BEN
# How it was run: as §1
# LU99A = system: LU99A
# How it was run: as §1
# LXF-289 = system: LXF-289
# How it was run: as §1
structure (smiles),measurement,setting,value
CCN(CC)CCCCNc1ncc2cc(-c3cc(OC)cc(OC)c3)c(NC(=O)NC(C)(C)C)nc2n1 + CS(=O)(=O)N1CCN(Cc2cc3nc(-c4cccc5[nH]ncc45)nc(N4CCOCC4)c3s2)CC1 [Pictilisib] (partner 1 µM),relative viability,NCI-H1355; first compound 0.01 µM,0.327
same,relative viability,NCI-H1355; first compound 0.03162 µM,0.375
same,relative viability,NCI-H1355; first compound 0.1 µM,0.478
same,relative viability,NCI-H1355; first compound 0.3162 µM,0.569
same,relative viability,NCI-H1355; first compound 1 µM,0.461
same,relative viability,NCI-H1975; first compound 0.01 µM,0.28
same,relative viability,NCI-H1975; first compound 0.03162 µM,0.277
same,relative viability,NCI-H1975; first compound 0.1 µM,0.311
same,relative viability,NCI-H1975; first compound 0.3162 µM,0.322
same,relative viability,NCI-H1975; first compound 1 µM,0.255
same,relative viability,SK-MES-1; first compound 0.01 µM,0.307
same,relative viability,SK-MES-1; first compound 0.03162 µM,0.334
same,relative viability,SK-MES-1; first compound 0.1 µM,0.406
same,relative viability,SK-MES-1; first compound 0.3162 µM,0.425
same,relative viability,SK-MES-1; first compound 1 µM,0.348
same,relative viability,NCI-H358; first compound 0.01 µM,0.353
same,relative viability,NCI-H358; first compound 0.03162 µM,0.282
same,relative viability,NCI-H358; first compound 0.1 µM,0.38
same,relative viability,NCI-H358; first compound 0.3162 µM,0.35
same,relative viability,NCI-H358; first compound 1 µM,0.3
same,relative viability,HCC-78; first compound 0.03162 µM,0.189
same,relative viability,HCC-78; first compound 0.1 µM,0.224
same,relative viability,HCC-78; first compound 0.3162 µM,0.218
same,relative viability,HCC-78; first compound 1 µM,0.185
same,relative viability,LCLC-97TM1; first compound 0.03162 µM,0.18
same,relative viability,LCLC-97TM1; first compound 0.1 µM,0.162
same,relative viability,LCLC-97TM1; first compound 0.3162 µM,0.16
same,relative viability,LCLC-97TM1; first compound 1 µM,0.178
same,relative viability,NCI-H1651; first compound 0.01 µM,0.693
same,relative viability,NCI-H1651; first compound 0.03162 µM,0.706
same,relative viability,NCI-H1651; first compound 0.1 µM,0.624
same,relative viability,NCI-H1651; first compound 0.3162 µM,0.466
same,relative viability,NCI-H1651; first compound 1 µM,0.275
same,relative viability,PC-3 [JPC-3]; first compound 0.01 µM,0.739
same,relative viability,PC-3 [JPC-3]; first compound 0.03162 µM,0.843
same,relative viability,PC-3 [JPC-3]; first compound 0.1 µM,0.786
same,relative viability,PC-3 [JPC-3]; first compound 0.3162 µM,0.815
same,relative viability,PC-3 [JPC-3]; first compound 1 µM,0.602
same,relative viability,NCI-H2087; first compound 0.01 µM,0.784
same,relative viability,NCI-H2087; first compound 0.03162 µM,0.827
same,relative viability,NCI-H2087; first compound 0.1 µM,0.918
same,relative viability,NCI-H2087; first compound 0.3162 µM,0.961
same,relative viability,NCI-H2087; first compound 1 µM,0.984
same,relative viability,LK-2; first compound 0.01 µM,0.624
same,relative viability,LK-2; first compound 0.03162 µM,0.438
same,relative viability,LK-2; first compound 0.1 µM,0.425
same,relative viability,LK-2; first compound 0.3162 µM,0.388
same,relative viability,LK-2; first compound 1 µM,0.263
same,relative viability,NCI-H596; first compound 0.01 µM,0.422
same,relative viability,NCI-H596; first compound 0.03162 µM,0.418
same,relative viability,NCI-H596; first compound 0.1 µM,0.369
same,relative viability,NCI-H596; first compound 0.3162 µM,0.378
same,relative viability,NCI-H596; first compound 1 µM,0.35
same,relative viability,LC-2-ad; first compound 0.01 µM,0.481
same,relative viability,LC-2-ad; first compound 0.03162 µM,0.449
same,relative viability,LC-2-ad; first compound 0.1 µM,0.547
same,relative viability,LC-2-ad; first compound 0.3162 µM,0.544
same,relative viability,LC-2-ad; first compound 1 µM,0.392
same,relative viability,NCI-H1666; first compound 0.01 µM,0.363
same,relative viability,NCI-H1666; first compound 0.03162 µM,0.405
same,relative viability,NCI-H1666; first compound 0.1 µM,0.484
same,relative viability,NCI-H1666; first compound 0.3162 µM,0.595
same,relative viability,NCI-H1666; first compound 1 µM,0.367
same,relative viability,NCI-H838; first compound 0.01 µM,0.441
same,relative viability,NCI-H838; first compound 0.03162 µM,0.4
same,relative viability,NCI-H838; first compound 0.1 µM,0.395
same,relative viability,NCI-H838; first compound 0.3162 µM,0.383
same,relative viability,NCI-H838; first compound 1 µM,0.244
same,relative viability,NCI-H650; first compound 0.01 µM,0.874
same,relative viability,NCI-H650; first compound 0.03162 µM,0.889
same,relative viability,NCI-H650; first compound 0.1 µM,0.973
same,relative viability,NCI-H650; first compound 0.3162 µM,0.998
same,relative viability,NCI-H650; first compound 1 µM,0.925
same,relative viability,NCI-H1944; first compound 0.01 µM,0.362
same,relative viability,NCI-H1944; first compound 0.03162 µM,0.327
same,relative viability,NCI-H1944; first compound 0.1 µM,0.367
same,relative viability,NCI-H1944; first compound 0.3162 µM,0.352
same,relative viability,NCI-H1944; first compound 1 µM,0.341
same,relative viability,NCI-H661; first compound 0.01 µM,0.403
same,relative viability,NCI-H661; first compound 0.03162 µM,0.313
same,relative viability,NCI-H661; first compound 0.1 µM,0.434
same,relative viability,NCI-H661; first compound 0.3162 µM,0.445
same,relative viability,NCI-H661; first compound 1 µM,0.344
same,relative viability,ChaGo-K-1; first compound 0.01 µM,0.551
same,relative viability,ChaGo-K-1; first compound 0.03162 µM,0.559
same,relative viability,ChaGo-K-1; first compound 0.1 µM,0.95
same,relative viability,ChaGo-K-1; first compound 0.3162 µM,0.98
same,relative viability,ChaGo-K-1; first compound 1 µM,0.437
same,relative viability,BEN; first compound 0.01 µM,0.587
same,relative viability,BEN; first compound 0.03162 µM,0.516
same,relative viability,BEN; first compound 0.1 µM,0.525
same,relative viability,BEN; first compound 0.3162 µM,0.59
same,relative viability,BEN; first compound 1 µM,0.485
same,relative viability,LU99A; first compound 0.01 µM,0.31
same,relative viability,LU99A; first compound 0.03162 µM,0.396
same,relative viability,LU99A; first compound 0.1 µM,0.345
same,relative viability,LU99A; first compound 0.3162 µM,0.313
same,relative viability,LU99A; first compound 1 µM,0.277
same,relative viability,LXF-289; first compound 0.01 µM,0.769
same,relative viability,LXF-289; first compound 0.03162 µM,0.874
same,relative viability,LXF-289; first compound 0.1 µM,0.792
same,relative viability,LXF-289; first compound 0.3162 µM,0.676
same,relative viability,LXF-289; first compound 1 µM,0.386
